In patent publication US12611443B2, “Methods and compositions related to therapeutic peptides for cancer therapy” (THE UNIVERSITY OF CHICAGO, priority 2018, dated 2026):

What was measured:
[1] = system: human/murine cancer cells; assay: In vitro cell viability of cancer cells (calcein-AM, CASP3, ANXA5); type: cell-based; details: ELANE 3 μg/ml
From the text: Cell lines. The ovarian cancer cell lines—CAOV3, OVCAR3, OVCAR4, OVCAR5, A2780, A2780/CP70, HeyA8, TykNu, SKOV3, ID8, and ID8p53-/- were a gift from Dr. Ernst Lengyel, University of Chicago. The breast cancer cell lines—MDA-MB-231, MDA-MB-231.BM1, MCF-7, M6C, E0771, and E0771.LMB were a gift from Dr. Marsha Rosner, University of Chicago. The colon carcinoma cell line RKO, glioblastoma cancer cell line T98G, osteosarcoma cell lines U-2OS and Saos-2, and the hepatocellular carcinoma cell line HepG2 were a gift from Dr. Kay McLeod, University of Chicago. The lung cancer cell line NCI-H552 was a gift from Dr. Stephanie Huang, University of Chicago, and A549 and LLC1 cells were purchased from ATTC. The melanoma cell lines—B16F10, Mel888, Mel1106, and SK-MEL-28 cells were a gift from Dr. Thomas Gajewski, University of Chicago. The pancreatic cancer cell line PANC1 was a gift from Dr. Yamuna Krishnan, University of Chicago. The leukemia cell line K562 was a gift from Dr. Amittha Wickrema, University of Chicago.
The prostate cancer cell lines—CWR22Rv1, LAPC4, and LNCaP were a gift from Dr. Donald Vander Griend, University of Chicago. The neuroblastoma cell lines—SK-N-BE(2) and NBL-WN cells were a gift from Dr. Lucy Godley, University of Chicago.
Neutrophil media collections. Freshly isolated human or murine neutrophils were plated in serum-free DMEM for 24 h. Conditioned media was collected, spun at 500×g for 5 min, and media protein levels were determined with a Bradford assay (Biorad).
PMN media manipulations. For boiling, PMN media was boiled at 95° C. for 5 min and spun at 15,000×g for 10 min to remove precipitated proteins. For dialysis, PMN media was placed into a Slide-a-Lyzer™ cassette (3.5 kDa cutoff, ThermoFisher Scientific) and dialyzed against 2×4L of PBS at 4° C. for 4 h. For PMSF-inactivation, PMN media was treated with PMSF (1 mM, Sigma) or A1AT (42 nM, Athens Research & Technology) and incubated at room temperature for up to 2 h. Residual PMSF was eliminated with a PD-10 desalting column (GE Healthcare Life). Inhibition of ELANE catalytic activity was confirmed using a chromogenic substrate activity assay (see below). For serum-spiking experiments, human, mouse, or fetal bovine serum (1% or 10%) was added to PMN media prior to or after exposing cancer cells. For immune-depletion studies, ELANE or ECP were immunoprecipitated using anti-ELANE (N2C3, GeneTx) or anti-ECP (MB S2535165, MyBioSource) coupled to Pierce™ Protein A/G Magnetic Beads (ThermoFisher Scientific).
(§1) In vitro cell viability assays. […] Luminescence was measured using a Victor X3 luminometer (PerkinElmer).

[2] = system: MDA-MB-231 cells; assay: Cell viability of MDA-MB-231 cells treated with purified ELANE or ECP; type: cell-based, human; details: MDA-MB-231
Protocol: as §1

[3] = system: Human monocyte-derived macrophages (HMDMs); assay: Cell viability of HMDMs treated with purified ELANE or ECP; type: cell-based
Protocol: Primary human blood-derived cells.
as §1

[4] = system: survival, stress, and apoptosis pathways in cancer cells; assay: Killing program in cancer cells (western blot, mitochondrial ROS); type: cell-based; details: all 6 cancer cell lines tested
Protocol: Western Blot Analysis. Cells were lysed with 1% SDS containing protease and phosphatase inhibitors (Sigma), and protein was quantified with the BCA Protein Assay Kit (Pierce). Proteins (10-20 μg) were resolved on 10%, 12.5%, 15%, or 20% SDS-PAGE gels depending on the target protein, transferred to PVDF membranes (Millipore), blocked with 5% BSA (Sigma) in 0.1% TBS/Tween-20 at RT for 2 hrs, stained with primary and secondary antibodies, and visualized using the ECL detection kit (Biorad) and a LI-COR imager. Antibodies—Antibodies against pERK (4370), ERK (4695), pNFκB (3033), NFκB (8242), pJNK (4668), JNK (9252), CASP3 (9662), PARP (9542), H2AX (2595), TUBB (2125) were from Cell Signaling Technology. Antibodies against γH2AX (05-636-I, Millipore), ELANE (68672, Abcam), N-terminal CD95 (3070R, BioVision), and C-terminal CD95 (60196, Proteintech).
Mitochondrial ROS measurements. Cells were treated with various doses of ELANE for 30 min, washed, labeled with the CM-H2DCFDA dye (ThermoFisher Scientific, 10 μM) for 30 min at 37° C., and fluorescence was quantified by flow cytometry.

[5] = system: tumor immune cells; assay: Tumor immune cell analysis by flow cytometry; type: in vivo, mice
Protocol: Tumor immune cell analysis. […] Cells were labeled with various antibodies and analyzed by flow cytometry. Data were quantified by FlowJo v.10.4.1. Antibodies included: CD45 (47-0451), CD11b (25-0112), MHCII (11-5321), CD4 (17-0041), CD8 (12-0081), CD44 (25-0441) from ThermoFisher Scientific; CD3 (560527), CD62L (561917), from BD Biosciences, and Ly6G (127614) from BioLegend.
Assessment of potential side-effects. ELANE or PMSF-ELANE (11.6 μg/100 μL) were injected into the 4th mammary fat pad of the right ventral side pad of tumor-free C57BL/6 mice once/day for 5 days. One day after the last injection, mice were studied for potential side-effects. Body weight and spleen weight were measured. Apoptosis at the injection site was studied by isolating, fixing, and staining mammary adipose tissue for TUNEL, cCASP3, and cPARP using identical methods described for tumors above. Mammary adipose tissue immune cell populations at the injection site were determined by flow cytometry using identical methods described for tumors above. Liver function was assessed by measuring plasma ALT activity with the Alanine Transaminase Colorimetric Activity Assays Kit (Cayman Chemical).

ELANE: neutrophil elastase, a serine protease released by human PMNs
apoptosis in cancer cell lines [1]: effectively induced apoptosis in all cancer cell lines tested
cell viability, purified protein [2]: killed MDA-MB-231 cells in a dose-dependent manner
cell viability, purified protein [3]: did not kill Human monocyte-derived macrophages (HMDMs)
DNA damage (γH2AX) [4]: induced DNA damage
mitochondrial ROS (MT ROS) [4]: increased MT ROS
pro-apoptotic pathways (cCASP3 and cPARP) [4]: activated pro-apoptotic pathways
survival pathways (phosphorylation of ERK, NFκB, or JNK) [4]: suppressed at least one survival pathway
immune cells at injection site of tumor-free mice ([5]; mammary fat pads of tumor-free mice): Immune cell increases were not observed
tumor immune cells ([5]; three immunocompetent models): increased the number of dendritic cells (DCs), CD8^+ T cells, and CD8^+ T effector cells (CD8^+Teff) in all three immunocompetent models tested
